Measurements: US8541573B2, “Substituted sulfonamide compounds” (Gruenenthal GmbH, priority 2008, dated 2013)
Structures can show the parent of a compound that is named as a salt.

What was measured:
[1] = biological target: T1, B1R of rats (Rattus norvegicus, UniProt P97583); assay: Functional investigation on the bradykinin 1 receptor (B1R), cell-based fluorescent calcium-mobilization assay (FLIPR/Novostar), rat; conditions: 10 μM test substance, CHO K1 cells stably transfected with rat B1R gene, agonist Des-Arg9-bradykinin at EC80, % inhibition compared with maximum achievable inhibition; for inhibition at 10 µM: read-out: B1R antagonism, rat [10 μM] % inhibition
T1 construct: expressed in transfected cells; host or cells: CHO K1 cells
T1 sequence (P97583 1-337): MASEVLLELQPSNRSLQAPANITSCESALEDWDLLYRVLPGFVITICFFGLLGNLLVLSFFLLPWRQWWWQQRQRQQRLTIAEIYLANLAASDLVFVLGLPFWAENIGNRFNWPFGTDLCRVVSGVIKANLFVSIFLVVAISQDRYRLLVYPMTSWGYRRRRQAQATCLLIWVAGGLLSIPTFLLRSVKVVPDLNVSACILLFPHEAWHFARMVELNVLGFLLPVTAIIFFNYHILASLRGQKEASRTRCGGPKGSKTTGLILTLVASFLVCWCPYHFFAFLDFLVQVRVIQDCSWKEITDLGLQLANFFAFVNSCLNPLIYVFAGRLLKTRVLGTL
Method: (§1) The agonistic or antagonistic action of substances can be quantified on the bradykinin 1 receptor (B1R) of the human and rat species with ectopically expressing cell lines (CHO K1 cells) and with the aid of a Ca^2+-sensitive dyestuff (Fluo-4) in a fluorescent imaging plate reader (FLIPR). The figure in % activation is based on the Ca^2+ signal after addition of Lys-Des-Arg^9-bradykinin (0.5 nM) or Des-Arg^9-bradykinin (100 nM). Antagonists lead to a suppression of the Ca^2+ inflow after addition of the agonist. % inhibition compared with the maximum achievable inhibition is stated.
(§2) The agonistic or antagonistic action of substances can be determined on the bradykinin 1 receptor (B1R) of humans and rats by means of a cell-based flourescent calcium-mobilization assay. According to this assay agonist-induced increase of intracellular free Ca^2+ is quantified by means of a Ca^2+-sensitive dye (Fluo-4 type, Molecular Probes Europe BV, Leiden, Netherlands), in a Fluorescent Imaging Plate Reader (FLIPR, Molecular Devices, Sunnyvale, USA) and/or the Novostar (BMG Labtech GmbH, Offenburg, Germany).
(§3) Chinese hamster ovary cells (CHO K1 cells), which are stably transfected with the human B1R gene (hB1R cells) or with the B1R gene of rats (rB1R cells), are used. For functional investigations these cells are seeded into black 96-well plates with a clear bottom (BD Biosciences, Heidelberg, Germany or Greiner, Frickenhausen, Germany) in a density of 20,000-35,000 cells/well. The cells are incubated overnight in a humidified atmosphere at 37° C. and 5% CO2 in culture medium (hB1R cells: Nutrient Mixture Ham's F12, Gibco Invitrogen GmbH, Karlsruhe, Germany or DMEM, Sigma-Aldrich, Taufkirchen, Germany; rB1R cells: D-MEM/F12, Gibco Invitrogen GmbH, Karlsruhe, Germany) with 10 vol. % FBS (foetal bovine serum, Gibco Invitrogen GmbH, Karlsruhe, Germany).
(§4) On the following day the cells are loaded with the Ca^2+-sensitive dye Fluo-4-AM (Molecular Probes Europe BV, Leiden, Netherlands):
(§5) Method A: The medium of the cells is removed and cell plates are incubated with loading solution, which contains 2.13 μM Fluo-4-AM, 2.5 mM probenecid (Sigma-Aldrich, Taufkirchen, Germany), and 10 mM HEPES (Sigma-Aldrich, Taufkirchen, Germany) in HBSS buffer (Hank's buffered saline solution, Gibco Invitrogen GmbH, Karlsruhe, Germany) for 60 minutes at 37° C. After the plates are washed twice with HBSS buffer, HBSS buffer supplemented 0.1% BSA (bovine serum albumin; Sigma-Aldrich, Taufkirchen, Germany), 5.6 mM glucose and 0.05% gelatine (Merck KGaA, Darmstadt, Germany) is added. Cell plates are incubated for at least 20 minutes in the dark at room temperature before they are used for the Ca^2+ measurement in the FLIPR or Novostar.
(§6) Method B: The plates are washed with buffer A (15 mM HEPES, 80 mM NaCl, 5 mM KCl, 1.2 mM CaCl2, 0.7 mM MgSO4, 2 mg/ml glucose, 2.5 mM probenecid) and subsequently loaded with buffer A containing 2.4 μM Fluo-4-AM and 0.025% pluronic F127 (Sigma-Aldrich, Taufkirchen, Germany) for 60 minutes at 37° C. Cell plates are washed twice with buffer A. Then, buffer A supplemented with 0.05% BSA and 0.05% gelatine is added and cell plates are incubated in the dark at room temperature for at least 20 minutes before measurement in the FLIPR or Novostar is started.
(§7) The Ca^2+-dependent fluorescence is measured both before and after the addition of substances (λex=488 nm, λem=540 nm). For quantification of the effect the highest fluorescence intensity (FC, fluorescence counts) over time is given. The FLIPR protocol consists of two substance additions, done within the instrument while continuously monitoring the Ca^2+-dependent fluorescence at 540 nm. When the Novostar was used, one addition had to be done outside the instrument. Test substances (10 μM) are initially pipetted onto the cells and the intracellular Ca^2+ rise is compared with the control (hB1R: Lys-Des-Arg9-bradykinin>=50 nM; rB1R: Des-Arg9-bradykinin>=1 μM). […]

[2] = biological target: T2, human B1R (Homo sapiens, UniProt P46663); assay: Functional investigation on the bradykinin 1 receptor (B1R), cell-based fluorescent calcium-mobilization assay (FLIPR/Novostar), human; conditions: 10 μM test substance, CHO K1 cells stably transfected with human B1R gene, agonist Lys-Des-Arg9-bradykinin at EC80, % inhibition compared with maximum achievable inhibition; for inhibition at 10 µM: read-out: B1R antagonism, human [10 μM] % inhibition
T2 construct: expressed in transfected cells; host or cells: CHO K1 cells
T2 sequence (P46663 1-353): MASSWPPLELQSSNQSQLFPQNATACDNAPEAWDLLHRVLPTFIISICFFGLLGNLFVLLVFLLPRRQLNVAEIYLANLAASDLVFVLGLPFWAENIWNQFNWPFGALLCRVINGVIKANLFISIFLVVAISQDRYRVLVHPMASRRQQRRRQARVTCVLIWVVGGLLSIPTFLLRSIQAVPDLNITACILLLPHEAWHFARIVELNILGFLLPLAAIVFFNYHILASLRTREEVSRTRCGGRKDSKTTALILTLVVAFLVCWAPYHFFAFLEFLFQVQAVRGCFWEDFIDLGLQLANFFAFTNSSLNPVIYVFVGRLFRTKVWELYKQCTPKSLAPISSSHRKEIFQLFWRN
Method: as §1, §2, §3, §4, §5, §6, §7

| Structure (SMILES) | B1R antagonism, rat [10 μM] % inhibition ([1]; hydrochloride, 10 µM) | B1R antagonism, human [10 μM] % inhibition ([2]; hydrochloride, 10 µM) | inhibition at 10 µM [1] | inhibition at 10 µM [2] |
| --- | --- | --- | --- | --- |
| COc1cc(C)c(S(=O)(=O)N(C)CCOCC(=O)N2CCC(CNC(=O)c3ccncc3)(N3CCN(C)CC3)CC2)c(C)c1 [Example 48, N-((1-(2-(2-(4-Methoxy-N,2,6-trimethylphenylsulfonamido)ethoxy)acetyl)-4-(4-methylpiperazin-1-yl)piperidin-4-yl)methyl)isonicotinamide hydrochloride] | 97% | 100% | – | – |
| CN1CCN(C2(CNC(=O)c3ccncc3)CCN(C(=O)CC(NS(=O)(=O)c3ccc4ccccc4c3)c3ccccc3)CC2)CC1 (centres unmarked) [Example 37, N-((4-(4-methylpiperazin-1-yl)-1-(3-(naphthalene-2-sulfonamido)-3-phenylpropanoyl)piperidin-4-yl)methyl)isonicotinamide] | – | – | 71% | 46% |
| CN1CCN(C2(CNC(=O)c3ccncc3)CCN(C(=O)COCC3CCc4ccccc4N3S(=O)(=O)c3ccc(Cl)c(Cl)c3)CC2)CC1 (centres unmarked) [Example 30, N-((1-(2-((1-(3,4-dichlorophenylsulfonyl)-1,2,3,4-tetrahydroquinolin-2-yl)methoxy)acetyl)-4-(4-methylpiperazin-1-yl)piperidin-4-yl)methyl)-isonicotinamide] | – | – | 80% | 100% |
| Cc1cc(S(=O)(=O)N2CCCCC2CCC(=O)N2CCC(CNC(=O)c3cccnc3)(N3CCN(C)CC3)CC2)c(C)cc1Cl (centres unmarked) [Example 33, N-((1-(3-(1-(4-chloro-2,5-dimethylphenylsulfonyl)piperidin-2-yl)propanoyl)-4-(4-methylpiperazin-1-yl)piperidin-4-yl)methyl)nicotinamide] | – | – | 100% | 103% |
| CN1CCN(C2(CNC(=O)c3cccnc3)CCN(C(=O)COCC3CCc4ccccc4N3S(=O)(=O)c3ccc(Cl)c(Cl)c3)CC2)CC1 (centres unmarked) [Example 40, N-((1-(2-((1-(3,4-dichlorophenylsulfonyl)-1,2,3,4-tetrahydroquinolin-2-yl)methoxy)acetyl)-4-(4-methylpiperazin-1-yl)piperidin-4-yl)methyl)nicotinamide] | – | – | 103% | 49% |
| COc1cc(C)c(S(=O)(=O)N(C)CCOCC(=O)N2CCC(CNC(=O)Cc3ccccc3)(N3CCN(C)CC3)CC2)c(C)c1 [Example 15, N-((1-(2-(2-(4-methoxy-N,2,6-trimethylphenylsulfonamido)ethoxy)acetyl)-4-(4-methylpiperazin-1-yl)piperidin-4-yl)methyl)-2-phenylacetamide] | – | – | 101% | 103% |
| CN1CCN(C2(CNC(=O)c3ccncc3)CCN(C(=O)CC3CCCCN3S(=O)(=O)c3cccc(C(F)(F)F)c3)CC2)CC1 (centres unmarked) [Example 29, N-((4-(4-methylpiperazin-1-yl)-1-(2-(1-(3-(trifluoromethyl)phenylsulfonyl)-piperidin-2-yl)acetyl)piperidin-4-yl)methyl)isonicotinamide] | – | – | 33% | 67% |
| Cc1cccc(Cl)c1S(=O)(=O)N(CCOCC(=O)N1CCC(CNC(=O)c2ccncc2)(N2CCN(C3CC3)CC2)CC1)C1CC1 [Example 43, N-((1-(2-(2-(2-Chloro-N-cyclopropyl-6-methylphenylsulfonamido)ethoxy)-acetyl)-4-(4-cyclopropylpiperazin-1-yl)piperidin-4-yl)methyl)-isonicotinamide] | – | – | 103% | 100% |
| Cc1cc(S(=O)(=O)N2CCCCC2CCC(=O)N2CCC(CNC(=O)c3ccccc3)(N3CCN(C)CC3)CC2)c(C)cc1Cl (centres unmarked) [Example 6, N-((1-(3-(1-(4-chloro-2,5-dimethylphenylsulfonyl)piperidin-2-yl)propanoyl)-4-(4-methylpiperazin-1-yl)piperidin-4-yl)methyl)benzamide] | – | – | 24% | 99% |
| COc1cc(C)c(S(=O)(=O)N(C)CCOCC(=O)N2CCC(CNC(=O)c3ccncc3)(N3CCN(C)CC3)CC2)c(C)c1C [Example 51, N-((1-(2-(2-(4-Methoxy-N,2,3,6-tetramethylphenylsulfonamido)ethoxy)acetyl)-4-(4-methylpiperazin-1-yl)piperidin-4-yl)methyl)isonicotinamide] | – | – | 103% | 100% |
| Cc1cc(S(=O)(=O)N2CCCCC2CCC(=O)N2CCC(CNC(=O)c3ccccn3)(N3CCN(C)CC3)CC2)c(C)cc1Cl (centres unmarked) [Example 9, N-((1-(3-(1-(4-chloro-2,5-dimethylphenylsulfonyl)piperidin-2-yl)propanoyl)-4-(4-methylpiperazin-1-yl)piperidin-4-yl)methyl)picolinamide] | – | – | 11% | 99% |
| CN1CCN(C2(CNC(=O)Cc3ccccc3)CCN(C(=O)CC3CCCCN3S(=O)(=O)c3cccc(C(F)(F)F)c3)CC2)CC1 (centres unmarked) [Example 4, N-((4-(4-methylpiperazin-1-yl)-1-(2-(1-(3-(trifluoromethyl)phenylsulfonyl)piperidin-2-yl)acetyl)piperidin-4-yl)methyl)-2-phenylacetamide] | – | – | 59% | 67% |
| COc1cc(C)c(S(=O)(=O)N2CCCCC2CCOCC(=O)N2CCC(CNC(=O)c3ccncc3)(N3CCN(C)CC3)CC2)c(C)c1 (centres unmarked) [Example 53, N-((1-(2-(2-(1-(4-Methoxy-2,6-dimethylphenylsulfonyl)piperidin-2-yl)ethoxy)acetyl)-4-(4-methylpiperazin-1-yl)piperidin-4-yl)methyl)isonicotinamide] | – | – | 102% | – |
| CN1CCN(C2(CNC(=O)c3ccncc3)CCN(C(=O)CCCN(C)S(=O)(=O)c3cccc(C(F)(F)F)c3)CC2)CC1 [Example 54, N-((1-(4-(N-Methyl-3-(trifluoromethyl)phenylsulfonamido)butanoyl)-4-(4-methylpiperazin-1-yl)piperidin-4-yl)methyl)isonicotinamide] | – | – | 66% | – |
